Assay results from US9371280B2, “Substituted pyrrolidine-2-carboxamides” (Hoffmann-La Roche Inc., priority 2012, dated 2016).
Structures can show the parent of a compound that is named as a salt.

target: interaction between p53 and MDM2 proteins (recombinant GST-tagged MDM2) (Homo sapiens, UniProt Q00987); test: HTRF assay of inhibition of the p53-MDM2 interaction (GST-MDM2 / biotinylated p53 peptide); format: binding; details: not given;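 also: FRET read-out from Eu-labelled anti-GST antibody to streptavidin-APC, with 90 nM N-terminally biotinylated p53 peptide and 160 ng/ml GST-MDM2 in Tris-borate saline containing 1 mM DTT, 384-well format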
Sequence (Q00987 whole entry): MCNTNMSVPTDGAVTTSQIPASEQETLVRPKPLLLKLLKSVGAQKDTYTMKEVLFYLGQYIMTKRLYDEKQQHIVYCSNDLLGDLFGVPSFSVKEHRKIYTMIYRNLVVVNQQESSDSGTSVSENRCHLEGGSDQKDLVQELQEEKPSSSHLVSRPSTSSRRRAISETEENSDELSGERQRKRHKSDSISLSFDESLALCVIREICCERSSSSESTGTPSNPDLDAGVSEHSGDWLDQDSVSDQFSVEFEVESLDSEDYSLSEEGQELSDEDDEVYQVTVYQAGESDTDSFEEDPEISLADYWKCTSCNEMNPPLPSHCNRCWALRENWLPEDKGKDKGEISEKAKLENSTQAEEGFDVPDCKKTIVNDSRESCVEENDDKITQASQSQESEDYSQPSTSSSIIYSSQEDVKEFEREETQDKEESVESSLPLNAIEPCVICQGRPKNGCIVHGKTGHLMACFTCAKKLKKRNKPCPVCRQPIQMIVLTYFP

**Q.** `COc1cc(C(=O)OCCCC(=O)O)ccc1NC(=O)[C@@H]1N[C@@H](CC(C)(C)C)[C@](C#N)(c2ccc(Cl)cc2F)[C@H]1c1cccc(Cl)c1F` [Example 36, 4-{[(2R,3S,4R,5S)-4-(4-Chloro-2-fluoro-phenyl)-3-(3-chloro-2-fluoro-phenyl)-4-cyano-5-(2,2-dimethyl-propyl)-pyrrolidine-2-carbonyl]-amino}-3-methoxy-benzoic acid 3-carboxy-propyl ester] was tested. Which IC50 did it give?
**A.** Its IC50 is 4.98 nM.

same assay, conditions: HTRF, 0.02% BSA, 37° C. 1 h

**Q.** For `COc1cc(C(=O)OCC(=O)N(C)C)ccc1NC(=O)[C@@H]1N[C@@H](CC(C)(C)C)[C@](C#N)(c2ccc(Cl)cc2F)[C@H]1c1cccc(Cl)c1F` [Example 24, 4-{[(2R,3S,4R,5S)-4-(4-Chloro-2-fluoro-phenyl)-3-(3-chloro-2-fluoro-phenyl)-4-cyano-5-(2,2-dimethyl-propyl)-pyrrolidine-2-carbonyl]-amino}-3-methoxy-benzoic acid dimethylcarbamoylmethyl ester, hydrochloride], which IC50 is on record?
**A.** The IC50 was 13.9 nM.

**Q.** With `COc1cc(C(=O)OCC(C)N2CCOCC2)ccc1NC(=O)[C@@H]1N[C@@H](CC(C)(C)C)[C@](C#N)(c2ccc(Cl)cc2F)[C@H]1c1cccc(Cl)c1F` (stereo partly drawn) [Example 25, 4-{[(2R,3S,4R,5S)-4-(4-Chloro-2-fluoro-phenyl)-3-(3-chloro-2-fluoro-phenyl)-4-cyano-5-(2,2-dimethyl-propyl)-pyrrolidine-2-carbonyl]-amino}-3-methoxy-benzoic acid 2-morpholin-4-yl-propyl ester, hydrochloride] as the compound, how does the IC50 read?
**A.** Its IC50 is 15.5 nM.

**Q.** `COc1cc(C(=O)NCCN2CCN(C)CC2)ccc1NC(=O)[C@@H]1N[C@@H](CC(C)(C)C)[C@](C#N)(c2ccc(Cl)cc2F)[C@H]1c1cccc(Cl)c1F` [Example 26, (2R,3S,4R,5S)-4-(4-Chloro-2-fluoro-phenyl)-3-(3-chloro-2-fluoro-phenyl)-4-cyano-5-(2,2-dimethyl-propyl)-pyrrolidine-2-carboxylic acid {2-methoxy-4-[2-(4-methyl-piperazin-1-yl)-ethylcarbamoyl]-phenyl}-amide, hydrochloride] was tested. Which IC50 did it give?
**A.** Its IC50 is 8.67 nM.

**Q.** For `COc1cc(C(=O)N(C)C)ccc1NC(=O)[C@@H]1N[C@@H](CC(C)(C)C)[C@](C#N)(c2ccc(Cl)cc2F)[C@H]1c1cccc(Cl)c1F` [Example 27, (2R,3S,4R,5S)-4-(4-Chloro-2-fluoro-phenyl)-3-(3-chloro-2-fluoro-phenyl)-4-cyano-5-(2,2-dimethyl-propyl)-pyrrolidine-2-carboxylic acid (4-dimethylcarbamoyl-2-methoxy-phenyl)-amide], which IC50 is on record?
**A.** The IC50 was 12.9 nM.

**Q.** With `COc1cc(C(=O)OC[C@H](O)[C@@H](O)[C@H](O)[C@H](O)CO)ccc1NC(=O)[C@@H]1N[C@@H](CC(C)(C)C)[C@](C#N)(c2ccc(Cl)cc2F)[C@H]1c1cccc(Cl)c1F` [Example 28, 4-{[(2R,3S,4R,5S)-4-(4-Chloro-2-fluoro-phenyl)-3-(3-chloro-2-fluoro-phenyl)-4-cyano-5-(2,2-dimethyl-propyl)-pyrrolidine-2-carbonyl]-amino}-3-methoxy-benzoic acid (2S,3R,4R,5R)-2,3,4,5,6-pentahydroxy-hexyl ester] as the compound, how does the IC50 read?
**A.** The IC50 was 6.02 nM.

**Q.** With `COc1cc(C(=O)OCCOC(=O)CNC(=O)OC(C)(C)C)ccc1NC(=O)[C@@H]1N[C@@H](CC(C)(C)C)[C@](C#N)(c2ccc(Cl)cc2F)[C@H]1c1cccc(Cl)c1F` [Example 29, 4-{[(2R,3S,4R,5S)-4-(4-Chloro-2-fluoro-phenyl)-3-(3-chloro-2-fluoro-phenyl)-4-cyano-5-(2,2-dimethyl-propyl)-pyrrolidine-2-carbonyl]-amino}-3-methoxy-benzoic acid 2-(2-tert-butoxycarbonylamino-acetoxy)-ethyl ester] as the compound, how does the IC50 read?
**A.** The IC50 was 16.7 nM.

**Q.** Which IC50 does the source give for `COc1cc(C(=O)OCCOC(=O)CN)ccc1NC(=O)[C@@H]1N[C@@H](CC(C)(C)C)[C@](C#N)(c2ccc(Cl)cc2F)[C@H]1c1cccc(Cl)c1F` [Example 30, 4-{[(2R,3S,4R,5S)-4-(4-Chloro-2-fluoro-phenyl)-3-(3-chloro-2-fluoro-phenyl)-4-cyano-5-(2,2-dimethyl-propyl)-pyrrolidine-2-carbonyl]-amino}-3-methoxy-benzoic acid 2-(2-amino-acetoxy)-ethyl ester] here?
**A.** The IC50 was 17.2 nM.

**Q.** With `COc1cc(C(=O)OCCOC(=O)CN(C)C(=O)OC(C)(C)C)ccc1NC(=O)[C@@H]1N[C@@H](CC(C)(C)C)[C@](C#N)(c2ccc(Cl)cc2F)[C@H]1c1cccc(Cl)c1F` [Example 31, 4-{[(2R,3S,4R,5S)-4-(4-Chloro-2-fluoro-phenyl)-3-(3-chloro-2-fluoro-phenyl)-4-cyano-5-(2,2-dimethyl-propyl)-pyrrolidine-2-carbonyl]-amino}-3-methoxy-benzoic acid 2-[2-(tert-butoxycarbonyl-methyl-amino)-acetoxy]-ethyl ester] as the compound, how does the IC50 read?
**A.** The IC50 was 13.7 nM.

**Q.** Which IC50 does the source give for `CNCC(=O)OCCOC(=O)c1ccc(NC(=O)[C@@H]2N[C@@H](CC(C)(C)C)[C@](C#N)(c3ccc(Cl)cc3F)[C@H]2c2cccc(Cl)c2F)c(OC)c1` [Example 32, 4-{[(2R,3S,4R,5S)-4-(4-Chloro-2-fluoro-phenyl)-3-(3-chloro-2-fluoro-phenyl)-4-cyano-5-(2,2-dimethyl-propyl)-pyrrolidine-2-carbonyl]-amino}-3-methoxy-benzoic acid 2-(2-methylamino-acetoxy)-ethyl ester, hydrochloride] here?
**A.** The IC50 was 16.4 nM.

**Q.** For `COc1cc(C(=O)OCCOC(=O)[C@@H](NC(=O)[C@H](C)N(C)C(=O)OC(C)(C)C)C(C)C)ccc1NC(=O)[C@@H]1N[C@@H](CC(C)(C)C)[C@](C#N)(c2ccc(Cl)cc2F)[C@H]1c1cccc(Cl)c1F` [Example 33, 4-{[(2R,3S,4R,5S)-4-(4-Chloro-2-fluoro-phenyl)-3-(3-chloro-2-fluoro-phenyl)-4-cyano-5-(2,2-dimethyl-propyl)-pyrrolidine-2-carbonyl]-amino}-3-methoxy-benzoic acid 2-[(S)-3-methyl-2-((S)-2-tert-butoxycarbonyl-methylamino-propionylamino)-butyryloxy]-ethyl ester], which IC50 is on record?
**A.** Its IC50 is 19.9 nM.

**Q.** For `COC(=O)COC(=O)c1ccc(NC(=O)[C@@H]2N[C@@H](CC(C)(C)C)[C@](C#N)(c3ccc(Cl)cc3F)[C@H]2c2cccc(Cl)c2F)c(OC)c1` [Example 35, 4-{[(2R,3S,4R,5S)-4-(4-Chloro-2-fluoro-phenyl)-3-(3-chloro-2-fluoro-phenyl)-4-cyano-5-(2,2-dimethyl-propyl)-pyrrolidine-2-carbonyl]-amino}-3-methoxy-benzoic acid methoxycarbonylmethyl ester], which IC50 is on record?
**A.** Its IC50 is 12.5 nM.

**Q.** Which IC50 does the source give for `COc1cc(C(=O)OCCC(=O)OC(C)(C)C)ccc1NC(=O)[C@@H]1N[C@@H](CC(C)(C)C)[C@](C#N)(c2ccc(Cl)cc2F)[C@H]1c1cccc(Cl)c1F` [Example 37, 4-{[(2R,3S,4R,5S)-4-(4-Chloro-2-fluoro-phenyl)-3-(3-chloro-2-fluoro-phenyl)-4-cyano-5-(2,2-dimethyl-propyl)-pyrrolidine-2-carbonyl]-amino}-3-methoxy-benzoic acid 2-tert-butoxycarbonyl-ethyl ester] here?
**A.** The IC50 was 16 nM.

**Q.** Which IC50 does the source give for `COc1cc(C(=O)OCCC(=O)O)ccc1NC(=O)[C@@H]1N[C@@H](CC(C)(C)C)[C@](C#N)(c2ccc(Cl)cc2F)[C@H]1c1cccc(Cl)c1F` [Example 38, 4-{[(2R,3S,4R,5S)-4-(4-Chloro-2-fluoro-phenyl)-3-(3-chloro-2-fluoro-phenyl)-4-cyano-5-(2,2-dimethyl-propyl)-pyrrolidine-2-carbonyl]-amino}-3-methoxy-benzoic acid 2-carboxy-ethyl ester] here?
**A.** Its IC50 is 10.2 nM.

**Q.** Which IC50 does the source give for `COc1cc(C(=O)NN)ccc1NC(=O)[C@@H]1N[C@@H](CC(C)(C)C)[C@](C#N)(c2ccc(Cl)cc2F)[C@H]1c1cccc(Cl)c1F` [Example 39, (2R,3S,4R,5S)-4-(4-Chloro-2-fluoro-phenyl)-3-(3-chloro-2-fluoro-phenyl)-4-cyano-5-(2,2-dimethyl-propyl)-pyrrolidine-2-carboxylic acid (4-hydrazinocarbonyl-2-methoxy-phenyl)-amide] here?
**A.** Its IC50 is 36.5 nM.

**Q.** Which IC50 does the source give for `COc1cc(C(=O)O[C@@H]2O[C@H](C(=O)O)[C@@H](O)[C@H](O)[C@H]2O)ccc1NC(=O)[C@@H]1N[C@@H](CC(C)(C)C)[C@](C#N)(c2ccc(Cl)cc2F)[C@H]1c1cccc(Cl)c1F` [Example 40, (2S,3S,4S,5R,6S)-6-(4-{[(2R,3S,4R,5S)-4-(4-Chloro-2-fluoro-phenyl)-3-(3-chloro-2-fluoro-phenyl)-4-cyano-5-(2,2-dimethyl-propyl)-pyrrolidine-2-carbonyl]-amino}-3-methoxy-benzoyloxy)-3,4,5-trihydroxy-tetrahydro-pyran-2-carboxylic acid; compound with trifluoro-acetic acid] here?
**A.** The IC50 was 6.2 nM.

**Q.** With `COc1cc(C(=O)OC[C@H]2O[C@@H](O)[C@H](O)[C@@H](O)[C@@H]2O)ccc1NC(=O)[C@@H]1N[C@@H](CC(C)(C)C)[C@](C#N)(c2ccc(Cl)cc2F)[C@H]1c1cccc(Cl)c1F` [Example 41, 4-{[(2R,3S,4R,5S)-4-(4-Chloro-2-fluoro-phenyl)-3-(3-chloro-2-fluoro-phenyl)-4-cyano-5-(2,2-dimethyl-propyl)-pyrrolidine-2-carbonyl]-amino}-3-methoxy-benzoic acid (2R,3S,4S,5R,6R)-3,4,5,6-tetrahydroxy-tetrahydro-pyran-2-ylmethyl ester; compound with trifluoro-acetic acid] as the compound, how does the IC50 read?
**A.** Its IC50 is 6.95 nM.

**Q.** `COc1cc(C(=O)OCCOCCOCCOCCOCCOCCOCCOCCO)ccc1NC(=O)[C@@H]1N[C@@H](CC(C)(C)C)[C@](C#N)(c2ccc(Cl)cc2F)[C@H]1c1cccc(Cl)c1F` [Example 42, 4-{[(2R,3S,4R,5S)-4-(4-Chloro-2-fluoro-phenyl)-3-(3-chloro-2-fluoro-phenyl)-4-cyano-5-(2,2-dimethyl-propyl)-pyrrolidine-2-carbonyl]-amino}-3-methoxy-benzoic acid, 2-(2-{2-[2-(2-{2-[2-(2-hydroxy-ethoxy)-ethoxy]-ethoxy}-ethoxy)-ethoxy]-ethoxy}-ethoxy)-ethyl ester, trifluoroacetate salt] was tested. Which IC50 did it give?
**A.** The IC50 was 22.2 nM.

**Q.** How did the IC50 turn out when `COc1cc(C(=O)OCCOCCN(C)C)ccc1NC(=O)[C@@H]1N[C@@H](CC(C)(C)C)[C@](C#N)(c2ccc(Cl)cc2F)[C@H]1c1cccc(Cl)c1F` [Example 46, 4-{[(2R,3S,4R,5S)-4-(4-Chloro-2-fluoro-phenyl)-3-(3-chloro-2-fluoro-phenyl)-4-cyano-5-(2,2-dimethyl-propyl)-pyrrolidine-2-carbonyl]-amino}-3-methoxy-benzoic acid 2-(2-dimethylamino-ethoxy)-ethyl ester, hydrochloride] was run?
**A.** The IC50 was 14.2 nM.
